Source: ChEMBL document CHEMBL4130590, “Mtb PKNA/PKNB Dual Inhibition Provides Selectivity Advantages for Inhibitor Design To Minimize Host Kinase Interactions” (ACS Med Chem Lett, 2017)
Values after ≈ are worked out from the molar mass of the structure shown.

molecular target: T1, Serine/threonine-protein kinase PknB (Mycobacterium tuberculosis, UniProt P9WI81); assay: Inhibition of Mycobacterium tuberculosis PknB (M1 to G279 residues) expressed in Escherichia coli BL21 (DE3) cells using [T-33P]ATP as substrate after 50 mins in presence of GarA by liquid scintillation method
T1 sequence (P9WI81 whole entry): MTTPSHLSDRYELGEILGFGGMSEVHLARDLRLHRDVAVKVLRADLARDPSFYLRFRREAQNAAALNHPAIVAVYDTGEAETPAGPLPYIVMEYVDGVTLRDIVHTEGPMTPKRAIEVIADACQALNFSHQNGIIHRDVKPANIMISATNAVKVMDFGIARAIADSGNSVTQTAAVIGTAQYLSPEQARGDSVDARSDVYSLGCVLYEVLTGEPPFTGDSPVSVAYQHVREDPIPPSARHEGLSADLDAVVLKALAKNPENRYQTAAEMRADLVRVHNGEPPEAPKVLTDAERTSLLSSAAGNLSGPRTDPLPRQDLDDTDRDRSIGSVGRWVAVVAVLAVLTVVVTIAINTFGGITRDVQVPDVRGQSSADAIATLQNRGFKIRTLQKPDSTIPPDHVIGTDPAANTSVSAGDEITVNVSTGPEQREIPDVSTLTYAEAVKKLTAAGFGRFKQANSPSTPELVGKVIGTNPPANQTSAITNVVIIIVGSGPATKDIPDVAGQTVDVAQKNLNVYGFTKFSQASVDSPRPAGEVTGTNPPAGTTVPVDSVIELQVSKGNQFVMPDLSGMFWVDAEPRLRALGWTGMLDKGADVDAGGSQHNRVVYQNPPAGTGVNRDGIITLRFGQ

Structure (SMILES) | Ki [nM]
COC(=O)N1CCCN(c2nc(Nc3cc(C4CC4)[nH]n3)c3cc(Cl)ccc3n2)CC1 | 230
CN1CCN(c2nc(Nc3cc(C4CC4)[nH]n3)c3cc(Cl)ccc3n2)CCC1=O | 310
COc1ccc2nc(N3CCCCCC3)nc(Nc3cc(C4CC4)[nH]n3)c2c1 | 82
NS(=O)(=O)c1ccc(-c2nccc(Nc3cc(C4CC4)[nH]n3)n2)s1 | 4
O=C(c1ccccc1)N1CCN(c2nc(Nc3cc(C4CC4)[nH]n3)c3cc(Cl)ccc3n2)CC1 | 310
N#Cc1ccc(-c2nc(Nc3cc(C4CC4)[nH]n3)c3cc(Cl)ccc3n2)cc1 | 88
NC(=O)c1cccc(-c2nc(Nc3cc(C4CC4)[nH]n3)c3cc(Cl)ccc3n2)c1 | 15
Cc1cnc(-c2ccc(S(N)(=O)=O)s2)nc1Nc1cc(C2CC2)[nH]n1 | 4
Cc1ccc2nc(N3CCCCCC3)nc(Nc3cc(C4CC4)[nH]n3)c2c1 | 98
NC(=O)c1ccc(-c2nc(Nc3cc(C4CC4)[nH]n3)c3cc(Cl)ccc3n2)cc1 | 29
N#CCc1ccc(-c2nc(Nc3cc(C4CC4)[nH]n3)c3cc(Cl)ccc3n2)cc1 | 5
OCc1cccc(-c2nc(Nc3cc(C4CC4)[nH]n3)c3cc(Cl)ccc3n2)c1 | 23
Clc1ccc2nc(-c3ccccc3)nc(Nc3cc(C4CC4)[nH]n3)c2c1 | 60 to 69
NS(=O)(=O)c1cccc(-c2ncc(Cl)c(Nc3cc(C4CC4)[nH]n3)n2)c1 | 17
CC(C)N1CCN(c2nc(Nc3cc(C4CC4)[nH]n3)c3cc(Cl)ccc3n2)CC1 | 1400
NS(=O)(=O)c1ccc(-c2nc(Nc3cc(C4CC4)[nH]n3)c3cc(Cl)ccc3n2)s1 | < 1
N#Cc1cccc(-c2nc(Nc3cc(C4CC4)[nH]n3)c3ccccc3n2)c1 | 40
N#CCc1cccc(-c2nc(Nc3cc(C4CC4)[nH]n3)c3cc(Cl)ccc3n2)c1 | 38

Structure (SMILES) | Ki [nM]
NS(=O)(=O)c1ccc(-c2nc(Nc3cc(C4CC4)[nH]n3)c3cc(Cl)ccc3n2)cc1 | 24
NC(=O)Cc1ccc(-c2nc(Nc3cc(C4CC4)[nH]n3)c3cc(Cl)ccc3n2)cc1 | 23
N#Cc1cccc(-c2nc(Nc3cc(C4CC4)[nH]n3)c3cc(Cl)ccc3n2)c1 | 50
Clc1ccc2nc(NC3CCC3)nc(Nc3cc(C4CC4)[nH]n3)c2c1 | 72
NS(=O)(=O)c1ccc(-c2ncc(Cl)c(Nc3cc(C4CC4)[nH]n3)n2)s1 | < 1.3
Cc1cnc(-c2ccc(S(N)(=O)=O)s2)nc1Nc1cc(C2CC2)n(C)n1 | > 4000
NS(=O)(=O)c1ccc(-c2ncc(Cl)c(Nc3cc(C4CC4)[nH]n3)n2)cc1 | 13
Clc1ccc2nc(N3CCCCCC3)nc(Nc3cc(C4CC4)[nH]n3)c2c1 | 150
O=C1CCN(c2nc(Nc3cc(C4CC4)[nH]n3)c3cc(Cl)ccc3n2)CCN1 | 190
Clc1ccc2nc(N3CCCOCC3)nc(Nc3cc(C4CC4)[nH]n3)c2c1 | 150
Clc1ccc2nc(N3CCCNCC3)nc(Nc3cc(C4CC4)[nH]n3)c2c1 | 960
CC(=O)N1CCCN(c2nc(Nc3cc(C4CC4)[nH]n3)c3cc(Cl)ccc3n2)CC1 | 150
NS(=O)(=O)c1cccc(-c2nc(Nc3cc(C4CC4)[nH]n3)c3cc(Cl)ccc3n2)c1 | 6
Fc1ccc2nc(N3CCCCCC3)nc(Nc3cc(C4CC4)[nH]n3)c2c1 | 81
N#Cc1ccc(-c2nc(Nc3cc(C4CC4)[nH]n3)c3ccccc3n2)cc1 | 46
NS(=O)(=O)c1ccc(-c2ncc(F)c(Nc3cc(C4CC4)[nH]n3)n2)s1 | < 1
Clc1ccc2nc(N3CCNCC3)nc(Nc3cc(C4CC4)[nH]n3)c2c1 | 990

molecular target: Glycogen synthase kinase-3 beta (Homo sapiens, UniProt P49841); assay: Inhibition of recombinant GSK3beta (unknown origin) using HSSPHQ(Sp)EDEEE as substrate by pyruvate kinase-lactate dehydrogenase coupled assay
Sequence (P49841 whole entry): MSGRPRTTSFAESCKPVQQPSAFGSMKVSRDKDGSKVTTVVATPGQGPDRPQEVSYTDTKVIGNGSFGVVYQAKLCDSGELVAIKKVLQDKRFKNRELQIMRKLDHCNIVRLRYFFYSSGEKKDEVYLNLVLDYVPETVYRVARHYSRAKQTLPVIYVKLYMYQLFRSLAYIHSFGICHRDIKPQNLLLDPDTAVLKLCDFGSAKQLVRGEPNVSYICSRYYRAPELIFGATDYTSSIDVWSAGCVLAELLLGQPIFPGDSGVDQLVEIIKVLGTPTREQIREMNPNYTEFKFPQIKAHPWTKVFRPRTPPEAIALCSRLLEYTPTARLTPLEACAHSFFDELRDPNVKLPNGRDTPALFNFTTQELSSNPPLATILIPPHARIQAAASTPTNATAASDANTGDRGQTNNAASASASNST

Structure (SMILES) | Ki [nM]
N#Cc1ccc(-c2nc(Nc3cc(C4CC4)[nH]n3)c3cc(Cl)ccc3n2)cc1 | 190
N#Cc1cccc(-c2nc(Nc3cc(C4CC4)[nH]n3)c3ccccc3n2)c1 | 9
N#Cc1cccc(-c2nc(Nc3cc(C4CC4)[nH]n3)c3cc(Cl)ccc3n2)c1 | > 4000
N#Cc1ccc(-c2nc(Nc3cc(C4CC4)[nH]n3)c3ccccc3n2)cc1 | 70

tested on: not listed separately; assay: Selectivity ratio of Ki for recombinant CDK2/cyclin A (unknown origin) to Ki for Mycobacterium tuberculosis PknB (M1 to G279 residues)

Structure (SMILES) | Ratio Ki
NS(=O)(=O)c1ccc(-c2nccc(Nc3cc(C4CC4)[nH]n3)n2)s1 | 2
NS(=O)(=O)c1ccc(-c2ncc(Cl)c(Nc3cc(C4CC4)[nH]n3)n2)s1 | > 13

molecular target: T2, Serine/threonine-protein kinase PknA (Mycobacterium tuberculosis (strain ATCC 25618 / H37Rv), UniProt P9WI83); assay: Inhibition of Mycobacterium tuberculosis PknA (M1 to A296 residues) expressed in Escherichia coli BL21 (DE3) pLysS cells using [T-33P]ATP as substrate after 120 mins in presence of GarA by liquid scintillation method
T2 sequence (P9WI83 whole entry): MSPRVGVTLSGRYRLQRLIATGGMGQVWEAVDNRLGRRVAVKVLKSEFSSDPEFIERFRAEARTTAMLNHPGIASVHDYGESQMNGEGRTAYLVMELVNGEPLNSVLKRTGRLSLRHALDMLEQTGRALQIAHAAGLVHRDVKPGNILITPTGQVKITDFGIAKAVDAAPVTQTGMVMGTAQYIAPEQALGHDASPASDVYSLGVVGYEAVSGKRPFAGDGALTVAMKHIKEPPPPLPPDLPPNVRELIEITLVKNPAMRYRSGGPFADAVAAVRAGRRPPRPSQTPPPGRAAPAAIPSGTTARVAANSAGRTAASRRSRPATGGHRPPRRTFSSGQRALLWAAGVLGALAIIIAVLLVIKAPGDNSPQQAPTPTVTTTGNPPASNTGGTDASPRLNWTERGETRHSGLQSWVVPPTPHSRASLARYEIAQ

Structure (SMILES) | Ki [nM]
COc1ccc2nc(N3CCCCCC3)nc(Nc3cc(C4CC4)[nH]n3)c2c1 | > 33000
NS(=O)(=O)c1ccc(-c2nccc(Nc3cc(C4CC4)[nH]n3)n2)s1 | 18
N#Cc1ccc(-c2nc(Nc3cc(C4CC4)[nH]n3)c3cc(Cl)ccc3n2)cc1 | > 4000
NC(=O)c1cccc(-c2nc(Nc3cc(C4CC4)[nH]n3)c3cc(Cl)ccc3n2)c1 | > 4000
Cc1cnc(-c2ccc(S(N)(=O)=O)s2)nc1Nc1cc(C2CC2)[nH]n1 | 18
Cc1ccc2nc(N3CCCCCC3)nc(Nc3cc(C4CC4)[nH]n3)c2c1 | > 33000
NC(=O)c1ccc(-c2nc(Nc3cc(C4CC4)[nH]n3)c3cc(Cl)ccc3n2)cc1 | > 4000
N#CCc1ccc(-c2nc(Nc3cc(C4CC4)[nH]n3)c3cc(Cl)ccc3n2)cc1 | > 4000
OCc1cccc(-c2nc(Nc3cc(C4CC4)[nH]n3)c3cc(Cl)ccc3n2)c1 | 2300
Clc1ccc2nc(-c3ccccc3)nc(Nc3cc(C4CC4)[nH]n3)c2c1 | > 4000
NS(=O)(=O)c1cccc(-c2ncc(Cl)c(Nc3cc(C4CC4)[nH]n3)n2)c1 | < 8
NS(=O)(=O)c1ccc(-c2nc(Nc3cc(C4CC4)[nH]n3)c3cc(Cl)ccc3n2)s1 | < 8
NS(=O)(=O)c1ccc(-c2nc(Nc3cc(C4CC4)[nH]n3)c3cc(Cl)ccc3n2)cc1 | 22
NC(=O)Cc1ccc(-c2nc(Nc3cc(C4CC4)[nH]n3)c3cc(Cl)ccc3n2)cc1 | 1800
N#Cc1cccc(-c2nc(Nc3cc(C4CC4)[nH]n3)c3cc(Cl)ccc3n2)c1 | > 4000
NS(=O)(=O)c1ccc(-c2ncc(Cl)c(Nc3cc(C4CC4)[nH]n3)n2)s1 | 9
Cc1cnc(-c2ccc(S(N)(=O)=O)s2)nc1Nc1cc(C2CC2)n(C)n1 | > 4000
NS(=O)(=O)c1ccc(-c2ncc(Cl)c(Nc3cc(C4CC4)[nH]n3)n2)cc1 | 2900
Clc1ccc2nc(N3CCCCCC3)nc(Nc3cc(C4CC4)[nH]n3)c2c1 | > 33000
NS(=O)(=O)c1cccc(-c2nc(Nc3cc(C4CC4)[nH]n3)c3cc(Cl)ccc3n2)c1 | < 8
Fc1ccc2nc(N3CCCCCC3)nc(Nc3cc(C4CC4)[nH]n3)c2c1 | > 33000
NS(=O)(=O)c1ccc(-c2ncc(F)c(Nc3cc(C4CC4)[nH]n3)n2)s1 | 12

tested on: Mycobacterium tuberculosis; assay: Antibacterial activity against Mycobacterium tuberculosis H37Ra after […] by resazurin reduction assay; assay type: functional

Structure (SMILES) | MIC90 [µM]
NS(=O)(=O)c1ccc(-c2nccc(Nc3cc(C4CC4)[nH]n3)n2)s1 | 4.2 (≈ 1.52 µg/mL)
Cc1cnc(-c2ccc(S(N)(=O)=O)s2)nc1Nc1cc(C2CC2)[nH]n1 | 4.7 (≈ 1.77 µg/mL)
NS(=O)(=O)c1cccc(-c2ncc(Cl)c(Nc3cc(C4CC4)[nH]n3)n2)c1 | 8.3 (≈ 3.24 µg/mL)
NS(=O)(=O)c1ccc(-c2ncc(Cl)c(Nc3cc(C4CC4)[nH]n3)n2)s1 | 6.25 (≈ 2.48 µg/mL)
Cc1cnc(-c2ccc(S(N)(=O)=O)s2)nc1Nc1cc(C2CC2)n(C)n1 | > 100
NS(=O)(=O)c1ccc(-c2ncc(Cl)c(Nc3cc(C4CC4)[nH]n3)n2)cc1 | > 100
Clc1ccc2nc(N3CCCCCC3)nc(Nc3cc(C4CC4)[nH]n3)c2c1 | 33 (≈ 12.6 µg/mL)
NS(=O)(=O)c1ccc(-c2ncc(F)c(Nc3cc(C4CC4)[nH]n3)n2)s1 | 3.1 (≈ 1.18 µg/mL)

molecular target: Proto-oncogene tyrosine-protein kinase Src (Homo sapiens, UniProt P12931); assay: Inhibition of recombinant SRC (unknown origin) using polyE4Y as substrate by pyruvate kinase-lactate dehydrogenase coupled assay
Sequence (P12931 2-536 limits assumed): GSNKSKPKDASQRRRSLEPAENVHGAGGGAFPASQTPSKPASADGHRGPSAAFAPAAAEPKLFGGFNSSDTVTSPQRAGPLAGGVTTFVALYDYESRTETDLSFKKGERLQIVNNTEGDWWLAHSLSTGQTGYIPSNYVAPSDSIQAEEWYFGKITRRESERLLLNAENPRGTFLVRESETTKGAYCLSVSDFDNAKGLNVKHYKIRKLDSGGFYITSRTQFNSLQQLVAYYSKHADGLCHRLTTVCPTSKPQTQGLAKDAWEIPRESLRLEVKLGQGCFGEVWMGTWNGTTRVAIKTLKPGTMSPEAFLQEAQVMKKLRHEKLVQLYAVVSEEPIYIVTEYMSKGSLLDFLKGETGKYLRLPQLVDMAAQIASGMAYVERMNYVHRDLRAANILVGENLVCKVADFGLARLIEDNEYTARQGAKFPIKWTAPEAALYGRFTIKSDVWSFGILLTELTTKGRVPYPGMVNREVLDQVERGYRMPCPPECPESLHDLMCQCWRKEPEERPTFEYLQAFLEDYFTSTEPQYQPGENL

Structure (SMILES) | Ki [nM]
N#Cc1ccc(-c2nc(Nc3cc(C4CC4)[nH]n3)c3cc(Cl)ccc3n2)cc1 | 710
N#Cc1cccc(-c2nc(Nc3cc(C4CC4)[nH]n3)c3ccccc3n2)c1 | 22
N#Cc1cccc(-c2nc(Nc3cc(C4CC4)[nH]n3)c3cc(Cl)ccc3n2)c1 | 200
N#Cc1ccc(-c2nc(Nc3cc(C4CC4)[nH]n3)c3ccccc3n2)cc1 | 18

molecular target: CDK2/Cyclin A2 (Homo sapiens, UniProt P24941); assay: Inhibition of recombinant CDK2/cyclin A (unknown origin) using MAHHRSPRKRAKKK as substrate by pyruvate kinase-lactate dehydrogenase coupled assay; assay type: protein-complex assay

Structure (SMILES) | Ki [nM]
NS(=O)(=O)c1ccc(-c2nccc(Nc3cc(C4CC4)[nH]n3)n2)s1 | 7
N#Cc1ccc(-c2nc(Nc3cc(C4CC4)[nH]n3)c3cc(Cl)ccc3n2)cc1 | 170
N#Cc1cccc(-c2nc(Nc3cc(C4CC4)[nH]n3)c3ccccc3n2)c1 | 11
N#Cc1cccc(-c2nc(Nc3cc(C4CC4)[nH]n3)c3cc(Cl)ccc3n2)c1 | 750
NS(=O)(=O)c1ccc(-c2ncc(Cl)c(Nc3cc(C4CC4)[nH]n3)n2)s1 | 17
N#Cc1ccc(-c2nc(Nc3cc(C4CC4)[nH]n3)c3ccccc3n2)cc1 | 140
